Data published in patent publication US20120010075A1 (priority 2009, published 2012).
Where two headings read alike, the source gives them in different places.

What was measured:
[1] = system: Leptosphaeria nodorum (LEPTNO); test: In vitro fungitoxicity of hydrazones with and without copper towards Leptosphaeria nodorum (Example 26); type: cell-based; conditions: 72 h at 25° C.; for inhibition of growth at 0.05 µg/mL: Parastagonospora nodorum, 72 h, read-out: LEPTNO % Inhn. Minus Copper Observed
Phytophthora infestans = type: in vivo, Phytophthora infestans on tomato; conditions: applied 24 h before inoculation, assessed 7 days after inoculation
[2] = copper-minus medium, test compound Concn. 0.05 μg/mL
[3] = copper-plus medium (CuCl2 10 μM), test compound Concn. 0.05 μg/mL
[4] = hydrazone 50 ppm with 50 μM CuCl2.2H2O, tomato late blight
[5] = compound 0.05 μg/mL, copper-minus medium
[6] = compound 0.05 μg/mL, copper-plus medium (CuCl2.2H2O)
[7] = hydrazone 50 ppm + 50 μM CuCl2.2H2O, tomato

SMILES | inhibition of growth at 0.05 µg/mL [1, 2] | LEPTNO % Inhn. Plus Copper Observed [1, 3] | melting point | TLB % Control (Phytophthora infestans; [4]) | inhibition of growth at 0.05 µg/mL [1, 5] | LEPTNO % Inhn. Plus Copper Observed [1, 6] | TLB % Control (Phytophthora infestans; [7]) | LEPTNO % Inhn. Minus Copper Observed [1, 5]
O=C(N/N=C/c1cc(Cl)cc(Cl)c1O)c1cc(Cl)ccc1O [Example 475] | 33.8% | 97.1% | 287 to 292 °C | 100.0% | – | – | – | –
CNc1ccc(C(=O)N/N=C/c2cc(Cl)cc(Cl)c2O)cc1 [Example 259] | – | – | 245 to 253 °C | – | 9.9% | 97.9% | 32.0% | –
O=C(N/N=C/c1c(Cl)ccc(Cl)c1O)c1ccc([N+](=O)[O-])cc1 [Example 375] | 7.2% | 98.2% | 250 to 300 °C (dec.) | 90.0% | – | – | – | –
C/C(=N\NC(=O)c1ccccc1Br)c1cc(Cl)ccc1O [Example 514] | 0% | 97.7% | 222 to 225 °C | 75.0% | – | – | – | –
C/C(=N\NC(=O)c1cccc(C)c1)c1cc(C(F)(F)F)ccc1O [Example 529] | 15.3% | 97.7% | 235 to 238 °C | 46.0% | – | – | – | –
C/C(=N\NC(=O)c1ccccc1C)c1cc(C(F)(F)F)ccc1O [Example 528] | 8.7% | 97.7% | 200 to 203 °C | 73.0% | – | – | – | –
Cc1cccc(O)c1C(=O)N/N=C/c1cc(Cl)cc(Cl)c1O [Example 485] | 8% | 96.7% | 217 to 219 °C | 95.0% | – | – | – | –
C/C(=N\NC(=O)c1ccc(C)cc1)c1cc(Br)ccc1O [Example 290] | – | – | 245 to 248 °C | – | 0.4% | 95.5% | 21.0% | –
COc1cccc(/C(C)=N/NC(=O)c2ccccc2Br)c1O [Example 467] | 0% | 95.7% | 245 to 247 °C | 80.0% | – | – | – | –
COc1ccc(C(=O)N/N=C(\C)c2cc(Cl)cc(Cl)c2O)cc1 [Example 469] | 1% | 97.8% | 226 to 227 °C | 95.0% | – | – | – | –
C/C(=N\NC(=O)Cc1ccc(F)cc1)c1cc(Cl)cc(Cl)c1O [Example 17] | – | – | 209 to 213 °C | – | 9.4% | 95.9% | 69.0% | –
O=C(N/N=C/c1cc(C(F)(F)F)cc(C(F)(F)F)c1O)c1cccc([N+](=O)[O-])c1 [Example 338] | 9% | 98.1% | 256 to 258 °C | 96.0% | – | – | – | –
C/C(=N\NC(=O)c1ccccc1)c1cccc(Cl)c1O [Example 492] | 0% | 98.1% | 202 to 203 °C | 93.0% | – | – | – | –
C/C(=N\NC(=O)c1cc(Cl)ccc1O)c1cc(Cl)cc(Cl)c1O [Example 490] | 31.5% | 97.0% | 322 to 325 °C | 55.0% | – | – | – | –
Cc1cc(C)cc(C(=O)N/N=C/c2cc([N+](=O)[O-])cc(Br)c2O)c1 [Example 208] | – | – | 283 to 300 °C | – | 5.4% | 97.0% | 32.8% | –
COc1cccc(C(=O)N/N=C/c2cc(Cl)ccc2O)c1C [Example 133] | – | – | 122 to 128 °C | – | 8.8% | 98.5% | 71.9% | –
COc1ccc(/C(C)=N/NC(=O)c2ccccc2Cl)c(O)c1OC [Example 555] | 3.7% | 92.5% | 77 to 86 °C | 46.0% | – | – | – | –
C/C(=N\NC(=O)c1ccccc1Cl)c1cc(Br)cc(Br)c1O [Example 543] | 1.3% | 93.9% | 207 to 209 °C | 100.0% | – | – | – | –
C/C(=N\NC(=O)c1cccc(C)c1)c1cc(F)cc(F)c1O [Example 574] | 2.8% | 98.3% | 215 to 216 °C | 93.0% | – | – | – | –
O=C(N/N=C(/c1cc(Cl)cc(Cl)c1O)C1CC1)c1ccccc1 [Example 589] | 8.7% | 97.9% | 218 to 219 °C | 61.0% | – | – | – | –

SMILES | inhibition of growth at 0.05 µg/mL [1, 2] | LEPTNO % Inhn. Plus Copper Observed [1, 3] | melting point | TLB % Control (Phytophthora infestans; [4]) | inhibition of growth at 0.05 µg/mL [1, 5] | LEPTNO % Inhn. Plus Copper Observed [1, 6] | TLB % Control (Phytophthora infestans; [7]) | LEPTNO % Inhn. Minus Copper Observed [1, 5]
C/C(=N\NC(=O)c1ccccc1C)c1cccc([N+](=O)[O-])c1O [Example 269] | – | – | 193 to 196 °C | – | 0% | 98.8% | 21.0% | –
O=C(N/N=C/c1cc(C(F)(F)F)cc(C(F)(F)F)c1O)c1ccc(F)cc1 [Example 335] | 10.2% | 96.8% | 226 to 228 °C | 95.0% | – | – | – | –
Cc1ccc(C(=O)N/N=C/c2c(C(F)(F)F)ccc(Cl)c2O)c(O)c1 [Example 457] | 6.7% | 100.0% | 258 to 260 °C | 100.0% | – | – | – | –
Cc1ccc(C(=O)N/N=C/c2cc(Cl)ccc2O)c(O)c1 [Example 446] | 23.5% | 95.4% | 282 to 286 °C | 57.0% | – | – | – | –
O=C(N/N=C/c1cc(C(F)(F)F)cc(Cl)c1O)c1ccccc1C(F)(F)F [Example 330] | 5.3% | 92.9% | 169 to 171 °C | 99.0% | – | – | – | –
COc1ccc(O)c(C(=O)N/N=C/c2cc(Cl)cc(Cl)c2O)c1 [Example 487] | 11.2% | 93.9% | 250 to 252 °C | 100.0% | – | – | – | –
Cc1ccc(C(=O)N/N=C(\CCc2ccccc2)c2ccccc2O)c(C)c1 [Example 35] | – | – | 162 to 166 °C | – | – | 96.5% | 0.0% | 3.8%
C/C(=N\NC(=O)c1ccc(Br)cc1)c1cc(C(F)(F)F)ccc1O [Example 535] | 10.1% | 97.7% | 256 to 259 °C | 56.0% | – | – | – | –
COc1cc(Br)cc(/C=N/NC(=O)c2cc(C)cc(C)c2)c1O [Example 209] | – | – | 189 to 193 °C | – | 17.6% | 95.9% | 67.3% | –
COc1ccc(C(=O)N/N=C(\C)c2ccc(OC)c(OC)c2O)cc1 [Example 558] | 3.8% | 95.7% | 230 to 232 °C | 80.0% | – | – | – | –
O=C(N/N=C/c1cccc(C(F)(F)F)c1O)c1ccccc1 [Example 296] | 8.3% | 97.7% | 170 to 173 °C | 84.7% | – | – | – | –
C/C(=N\NC(=O)c1ccc(Br)cc1)c1cc(Br)cc(Br)c1O [Example 547] | 10.8% | 97.7% | 264 to 266 °C | 88.0% | – | – | – | –
C/C(=N\NC(=O)c1cccc(C)c1)c1cccc([N+](=O)[O-])c1O [Example 270] | – | – | 235 to 239 °C | – | 6.9% | 98.6% | 61.0% | –
O=C(N/N=C/c1cc(C(F)(F)F)cc(Cl)c1O)c1cccc(Cl)c1 [Example 325] | 0% | 95.7% | 210 to 212 °C | 100.0% | – | – | – | –
O=C(N/N=C/c1cccc(C(F)(F)F)c1O)c1cccc(F)c1 [Example 345] | 18.8% | 97.9% | 176 to 180 °C | 97.0% | – | – | – | –
COc1ccc(C(=O)N/N=C(\C)c2cc(Cl)ccc2O)cc1 [Example 511] | 0% | 97.8% | 203 to 228 °C | 73.0% | – | – | – | –
COc1ccc(/C(C)=N/NC(=O)c2ccccc2O)c(O)c1 [Example 473] | 0% | 97.5% | 276 to 278 °C | 78.0% | – | – | – | –
COc1ccc(C(=O)N/N=C(\C)c2ccc(OC)cc2O)cc1 [Example 482] | 0% | 96.4% | 226 to 227 °C | 66.0% | – | – | – | –
O=C(N/N=C/c1cc(Cl)cc(C(F)(F)F)c1O)c1ccccc1C(F)(F)F [Example 385] | 5.4% | 94.6% | 203 to 204 °C | 100.0% | – | – | – | –
Cc1ccc(C(=O)N/N=C/c2cc(C(F)(F)F)ccc2O)cc1 [Example 436] | 14.6% | 98.2% | 245 to 249 °C | 94.0% | – | – | – | –
